Counter-ions that a name gives are not always drawn.
Tests used:
[1] = test system: HIF1-α and HIF2-α; test: HIF stabilization (Western blot, HIF reporter); format: cell-based; conditions: HeLa cells, 50 μM, 6 h
Experimental: FIGS. 10A-10B present exemplary data showing the effect of meclizine on HIF-1α stabilization. 10A, HIF-1α and HIF-2α detection by western blot analysis of protein extract from HeLa cells after 6-h treatment with 0.1% DMSO, 100 μM deferoxamine (DFO) or […]. 10B, a bar graph showing HIF reporter activity measured in transiently transfected HeLa cells following 6 hours treatment with DMSO, 100 μM DFO or 50 μM Mec. NTC refers to non-transfected control. Data is representative of 2 independent experiments done in triplicate. (*P<0.05; two sided t-test).
(§1) To explore this hypothesis, activation of glycolysis via hypoxia inducible factor (HIF), a known transcriptional activator of glycolysis, was tested. HIF1-α and HIF2-α stabilization was assessed in HeLa cells by carrying out Western blot detection using anti-HIF1-α antibody (Cell Signaling Cat. No. 3716) and anti-HIF2-α antibody (Novus Biologicals). Protein was extracted from cells pre-treated with either 0.1% DMSO, 50 μM meclizine or 100 μM deferoxamine (Sigma Cat. No. D9533). Western detection of Glutaminase (GLS) was carried out on protein extracts from 293 cells using anti-GLS antibodies (gift from Dr. Javier Marquez, University of Malaga, Spain).

[2] = test system: Glutaminase (GLS); test: Western detection of Glutaminase (GLS) protein; format: cell-based; conditions: Western blot
Experimental: as §1, with “[…],” for “Malaga,”

[3] = test system: caspase 3 and caspase 7; test: Western blot of cleaved caspase 3 and 7 after serum withdrawal; format: cell-based, murine; conditions: 50 μM, up to 24 hours after serum withdrawal
Experimental: Western blot analysis was performed as follows. Murine STH^Q111/111 striatal cells expressing mutant huntingtin protein were grown to ˜75% confluency in 15 cm cell culture plate. Then serum containing medium was replaced with serum free media with either 0.1% DMSO or 50 μM meclizine and total protein was extracted at 0, 4, 10 and 24 hours post serum withdrawal and drug treatment in cell lysis buffer (Cell Signaling Cat No. 9803).
Protein concentration was determined using BCA protein assay kit (Thermo Scientific Cat No. 23227). SDS PAGE was performed using NuPAGE 4-12% Bis-Tris gel from Invitrogen (NP0321). 15 μg of protein was loaded per lane. Western blotting was performed as per the standard procedures. Cleaved Caspase 3 (Cat. No. 9661), Cleaved Caspase 7 (Cat. No. 9491), p-ERK ([…]; Cat No. 9803), and AKT (Cat. No. 9803) antibodies were obtained from Cell Signaling. β-Actin antibody was purchased from Sigma (A1978).

[4] = test system: Immortalized mouse striatal 20A5 cells; test: Oxygen and glucose deprivation model of ischemia and reperfusion; format: cell-based; conditions: 25 μM pretreatment for 8 hours, over vehicle
Experimental: Immortalized mouse striatal 20A5 cells grown in DMEM with 10% dialyzed fetal bovine serum were exposed to oxygen and glucose deprivation for 18 hours followed by 12 hours of recovery in normoxia with full media. This IR model induces roughly 30% decrease in cell viability as measured by the ATP luminescence assay CellTiter-GLO.

[5] = test system: Trypanosoma brucei; test: Effectiveness against Trypanosoma brucei; format: cell-based; conditions: kills Trypanosoma brucei; read-out: ED50 (the source's name)

Which HIF stabilization [1] does the source give for `Cc1cccc(CN2CCN(C(c3ccccc3)c3ccc(Cl)cc3)CC2)c1` (racemic) [Meclizine, meclizine hydrochloride] here?
The HIF stabilization was “No HIF stabilization”.

What about the GLS protein level [2] of the same compound?
The GLS protein level was “not reduced”.

What about the “serum deprivation-induced activation of caspase 3 and caspase 7” value [3] of the same compound?
Its value is “prevented”.

And the “cell viability after oxygen and glucose deprivation” value [4]?
The value was “significant improvement in cell viability”.

And the EC50 [5]?
The EC50 was 1410 ± 120 nM.

Reference: patent publication US9399032B2, “Methods and compositions for treating degenerative and ischemic disorders” (The General Hospital Corporation, priority 2009, dated 2016)
